Results on 28 molecules are retold here after patent US10745384B2, “Indazole derivatives as αv integrin antagonists” (BRISTOL-MYERS SQUIBB COMPANY, priority 2016, dated 2020).

The target in the experiment is T1, human αVβ6 (Homo sapiens, UniProt P06756+P18564).
T1 construct: purchased R & D systems 3817-AV
Description: human αVβ6 HTRF binding assay. Conditions: recombinant human αVβ6 integrin, FITC-conjugated fibronectin. The method, boiled down: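 HTRF binding in 20 mM Tris pH 7.4 with 1 mM MgCl2, 1 mM MnCl2, 0.01% Tween 20 and 0.01% BSA. For αVβ6, biotinylated integrin (1.25 nM) and FITC-fibronectin (5 nM) were incubated 1 h at RT, then streptavidin-terbium (0.625 nM) was added overnight in the dark. An SPA-based fibronectin binding format was an alternative.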
On the technique in general: Time-resolved FRET reads energy transfer from a long-lived donor to a nearby acceptor.

Structures can show the parent of a compound that is named as a salt.

T1 sequence (P06756 31-992 limits assumed): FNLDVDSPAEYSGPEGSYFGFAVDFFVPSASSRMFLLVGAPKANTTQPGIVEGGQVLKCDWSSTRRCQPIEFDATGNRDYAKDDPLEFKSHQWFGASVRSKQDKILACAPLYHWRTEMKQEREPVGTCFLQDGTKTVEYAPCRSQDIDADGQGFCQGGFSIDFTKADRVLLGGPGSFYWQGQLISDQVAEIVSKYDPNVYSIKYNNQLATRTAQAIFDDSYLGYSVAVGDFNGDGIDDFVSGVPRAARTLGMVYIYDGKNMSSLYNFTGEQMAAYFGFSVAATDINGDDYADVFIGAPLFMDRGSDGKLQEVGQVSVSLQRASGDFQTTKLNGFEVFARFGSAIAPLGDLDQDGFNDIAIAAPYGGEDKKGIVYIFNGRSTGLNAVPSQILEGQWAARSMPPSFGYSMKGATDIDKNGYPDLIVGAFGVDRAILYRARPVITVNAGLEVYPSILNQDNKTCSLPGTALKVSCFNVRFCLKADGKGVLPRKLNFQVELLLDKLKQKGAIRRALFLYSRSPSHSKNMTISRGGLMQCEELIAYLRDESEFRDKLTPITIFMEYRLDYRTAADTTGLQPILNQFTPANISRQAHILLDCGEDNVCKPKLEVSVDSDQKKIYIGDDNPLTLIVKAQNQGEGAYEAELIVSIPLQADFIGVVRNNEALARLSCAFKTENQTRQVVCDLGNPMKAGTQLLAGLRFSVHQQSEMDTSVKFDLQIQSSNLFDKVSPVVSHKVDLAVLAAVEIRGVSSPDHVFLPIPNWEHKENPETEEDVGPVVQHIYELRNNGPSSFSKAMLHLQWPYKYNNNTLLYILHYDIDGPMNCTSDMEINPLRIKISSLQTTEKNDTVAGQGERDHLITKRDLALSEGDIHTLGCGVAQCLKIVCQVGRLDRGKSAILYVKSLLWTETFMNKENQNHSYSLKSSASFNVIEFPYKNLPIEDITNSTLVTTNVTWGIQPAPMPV
T1 sequence (P18564 22-707 limits assumed): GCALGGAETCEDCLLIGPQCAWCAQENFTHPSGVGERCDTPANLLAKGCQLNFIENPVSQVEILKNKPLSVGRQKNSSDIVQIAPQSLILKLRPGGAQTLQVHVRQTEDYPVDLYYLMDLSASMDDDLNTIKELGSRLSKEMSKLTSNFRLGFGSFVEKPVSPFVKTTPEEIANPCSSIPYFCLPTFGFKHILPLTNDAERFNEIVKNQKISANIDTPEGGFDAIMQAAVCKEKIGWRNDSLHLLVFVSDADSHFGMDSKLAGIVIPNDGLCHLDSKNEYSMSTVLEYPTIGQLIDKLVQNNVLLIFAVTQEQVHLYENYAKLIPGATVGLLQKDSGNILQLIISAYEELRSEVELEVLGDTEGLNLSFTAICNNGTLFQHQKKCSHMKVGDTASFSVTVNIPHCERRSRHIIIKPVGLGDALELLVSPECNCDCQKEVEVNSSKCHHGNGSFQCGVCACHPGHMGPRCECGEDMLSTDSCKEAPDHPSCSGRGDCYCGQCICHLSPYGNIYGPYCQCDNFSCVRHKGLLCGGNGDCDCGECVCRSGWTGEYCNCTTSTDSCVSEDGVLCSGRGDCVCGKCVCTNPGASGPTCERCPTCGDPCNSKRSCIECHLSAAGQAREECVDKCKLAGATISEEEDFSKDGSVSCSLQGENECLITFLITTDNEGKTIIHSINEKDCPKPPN

As to `O=C(O)CC(c1ccc2c(n1)NCCO2)n1ncc2cc(OCCc3ccc4c(n3)NCCC4)ccc21` (stereo not shown) [Example 91, 3-(3,4-Dihydro-2H-pyrido[3,2-b][1,4]oxazin-6-yl)-3-(5-(2-(5,6,7,8-tetrahydro-1,8-naphthyridin-2-yl)ethoxy)-1H-indazol-1-yl)propanoic acid, 2 TFA], the IC50 came out at 31 nM. The result for `O=C(O)CC(c1ccnc(N2CCCC2=O)c1)n1ncc2cc(OCCc3ccc4c(n3)NCCC4)ccc21` (stereo not shown) [Example 93, 3-(2-(2-Oxopyrrolidin-1-yl)pyridin-4-yl)-3-(5-(2-(5,6,7,8-tetrahydro-1,8-naphthyridin-2-yl)ethoxy)-1H-indazol-1-yl)propanoic acid, TFA] reads 8.1 nM. To `O=C(O)CC(c1ccc2cnccc2c1)n1ncc2cc(OCCc3ccc4c(n3)NCCC4)ccc21` (stereo not shown) [Example 94, 3-(Isoquinolin-6-yl)-3-(5-(2-(5,6,7,8-tetrahydro-1,8-naphthyridin-2-yl)ethoxy)-1H-indazol-1-yl) propanoic acid, 2 TFA] belongs 13 nM; to `O=C(O)CC(c1ccc2cccnc2n1)n1ncc2cc(OCCc3ccc4c(n3)NCCC4)ccc21` (stereo not shown) [Example 96, 3-(1,8-Naphthyridin-2-yl)-3-(5-(2-(5,6,7,8-tetrahydro-1,8-naphthyridin-2-yl)ethoxy)-1H-indazol-1-yl)propanoic acid, 2 TFA], 7.2 nM.

Consider `O=C(N[C@@H](Cn1cc2cc(OCc3ccc4c(n3)NCCC4)ccc2n1)C(=O)O)OCc1ccccc1` [Example 98, (S)-2-(((Benzyloxy)carbonyl)amino)-3-(5-((5,6,7,8-tetrahydro-1,8-naphthyridin-2-yl)methoxy)-2H-indazol-2-yl)propanoic acid], for which the IC50 is 160 nM. To `O=C(O)C[C@H](c1cncc(CO)c1)n1ncc2cc(OCCc3ccc4c(n3)NCCC4)ccc21` [Example 99, (R)-3-(5-(Hydroxymethyl)pyridin-3-yl)-3-(5-(2-(5,6,7,8-tetrahydro-1,8-naphthyridin-2-yl)ethoxy)-1H-indazol-1-yl)propanoic acid] belongs 340 nM. With `O=C(O)CC(c1cnc2c(cnn2C2CCCCO2)c1)n1ncc2cc(OCCc3ccc4c(n3)NCCC4)ccc21` (stereo not shown) [Example 103, 3-(5-(2-(5,6,7,8-tetrahydro-1,8-naphthyridin-2-yl)ethoxy)-1H-indazol-1-yl)-3-(1-(tetrahydro-2H-pyran-2-yl)pyrazolo[3,4-b]pyridin-5-yl)propanoic acid, TFA], the IC50 turned out to be 5.4 nM.

For `CN(C)Cc1cncc(C(CC(=O)O)n2ncc3cc(OCCc4ccc5c(n4)NCCC5)ccc32)c1` (stereo not shown) [Example 105, 3-(5-((Dimethylamino)methyl)pyridin-3-yl)-3-(5-(2-(5,6,7,8-tetrahydro-1,8-naphthyridin-2-yl)ethoxy)-1H-indazol-1-yl)propanoic acid], the IC50 turned out to be 10 nM. The result for `CCOc1ncc([C@@H](CC(=O)O)n2ncc3cc(OCCc4ccc5c(n4)NCCC5)ccc32)cn1` [Example 108, (R)-3-(2-Ethoxypyrimidin-5-yl)-3-(5-(2-(5,6,7,8-tetrahydro-1,8-naphthyridin-2-yl)ethoxy)-1H-indazol-1-yl) propanoic acid, TFA] reads 390 nM; that for `O=C(O)CC(c1ccc2ncsc2c1)n1ncc2cc(OCCc3ccc4c(n3)NCCC4)ccc21` (stereo not shown) [Example 110, 3-(Benzo[d]thiazol-6-yl)-3-(5-(2-(5,6,7,8-tetrahydro-1,8-naphthyridin-2-yl)ethoxy)-1H-indazol-1-yl)propanoic acid, TFA], 19 nM.

`O=C(O)CC(c1cnc(N2CCOCC2)nc1)n1ncc2cc(OCCc3ccc4c(n3)NCCC4)ccc21` (stereo not shown) [Example 111, 3-(2-Morpholinopyrimidin-5-yl)-3-(5-(2-(5,6,7,8-tetrahydro-1,8-naphthyridin-2-yl)ethoxy)-1H-indazol-1-yl)propanoic acid, TFA]: the IC50 amounted to 24 nM. The result for `COc1ccc(C(CC(=O)O)n2ncc3cc(OCCc4ccc5c(n4)NCCC5)ccc32)nn1` (stereo not shown) [Example 114, 3-(6-Methoxypyridazin-3-yl)-3-(5-(2-(5,6,7,8-tetrahydro-1,8-naphthyridin-2-yl)ethoxy)-1H-indazol-1-yl)propanoic acid, TFA] reads 2.6 nM; that for `O=C(O)CC(c1ccc2nncn2c1)n1ncc2cc(OCCc3ccc4c(n3)NCCC4)ccc21` (stereo not shown) [Example 115, 3-([1,2,4]Triazolo[4,3-a]pyridin-6-yl)-3-(5-(2-(5,6,7,8-tetrahydro-1,8-naphthyridin-2-yl)ethoxy)-1H-indazol-1-yl)propanoic acid], 60 nM; that for `O=C(O)CC(c1ccc2c(n1)NCCC2)n1ncc2cc(OCCc3ccc4c(n3)NCCC4)ccc21` (stereo not shown) [Example 116, 3-(5,6,7,8-Tetrahydro-1,8-naphthyridin-2-yl)-3-(5-(2-(5,6,7,8-tetrahydro-1,8-naphthyridin-2-yl)ethoxy)-1H-indazol-1-yl)propanoic acid, 2 TFA], 5.9 nM. For the molecule `CCN1CCn2c(C(CC(=O)O)n3ncc4cc(OCCc5ccc6c(n5)NCCC6)ccc43)cnc2C1` (stereo not shown) [Example 122, 3-(7-Ethyl-5,6,7,8-tetrahydroimidazo[1,2-a]pyrazin-3-yl)-3-(5-(2-(5,6,7,8-tetrahydro-1,8-naphthyridin-2-yl)ethoxy)-1H-indazol-1-yl)propanoic acid], the IC50 was determined as 14 nM. To `CC(C)(C)OC(=O)NCc1cncc(C(CC(=O)O)n2ncc3cc(OCCc4ccc5c(n4)NCCC5)ccc32)c1` (stereo not shown) [Example 123, 3-(5-(((tert-Butoxycarbonyl)amino)methyl)pyridin-3-yl)-3-(5-(2-(5,6,7,8-tetrahydro-1,8-naphthyridin-2-yl)ethoxy)-1H-indazol-1-yl)propanoic acid] belongs 5.5 nM; to `O=C(O)CC(c1cncc(N2CCOCC2)c1)n1ncc2cc(OCCc3ccc4c(n3)NCCC4)ccc21` (stereo not shown) [Example 124, 3-(5-Morpholinopyridin-3-yl)-3-(5-(2-(5,6,7,8-tetrahydro-1,8-naphthyridin-2-yl)ethoxy)-1H-indazol-1-yl)propanoic acid, 3 TFA], 1.9 nM; to `CS(=O)(=O)c1cncc(C(CC(=O)O)n2ncc3cc(OCCc4ccc5c(n4)NCCC5)ccc32)c1` (stereo not shown) [Example 125, 3-(5-(Methylsulfonyl)pyridin-3-yl)-3-(5-(2-(5,6,7,8-tetrahydro-1,8-naphthyridin-2-yl)ethoxy)-1H-indazol-1-yl)propanoic acid, 2 TFA], 4.7 nM.

As to `Cn1cnc2cc(C(CC(=O)O)n3ncc4cc(OCCc5ccc6c(n5)NCCC6)ccc43)cnc21` (stereo not shown) [Example 126, 3-(3-Methyl-3H-imidazo[4,5-b]pyridin-6-yl)-3-(5-(2-(5,6,7,8-tetrahydro-1,8-naphthyridin-2-yl)ethoxy)-1H-indazol-1-yl)propanoic acid, 2 TFA], the IC50 amounted to 21 nM. To `O=C(O)CC(c1cncc(N2CCCC2)c1)n1ncc2cc(OCCc3ccc4c(n3)NCCC4)ccc21` (stereo not shown) [Example 127, 3-(5-(Pyrrolidin-1-yl)pyridin-3-yl)-3-(5-(2-(5,6,7,8-tetrahydro-1,8-naphthyridin-2-yl)ethoxy)-1H-indazol-1-yl)propanoic acid, 3 TFA] belongs 6.2 nM; to `O=C(O)C[C@H](c1cnc2nccnc2c1)n1ncc2cc(OCCc3ccc4c(n3)NCCC4)ccc21` [Example 128, (R)-3-(Pyrido[2,3-b]pyrazin-7-yl)-3-(5-(2-(5,6,7,8-tetrahydro-1,8-naphthyridin-2-yl)ethoxy)-1H-indazol-1-yl)propanoic acid], 25 nM. The result for `O=C(O)C[C@@H](c1cnc2nccnc2c1)n1ncc2cc(OCCc3ccc4c(n3)NCCC4)ccc21` [Example 129, (S)-3-(Pyrido[2,3-b]pyrazin-7-yl)-3-(5-(2-(5,6,7,8-tetrahydro-1,8-naphthyridin-2-yl)ethoxy)-1H-indazol-1-yl)propanoic acid] reads 480 nM; that for `O=C(O)CC(c1ccn2cnnc2c1)n1ncc2cc(OCCc3ccc4c(n3)NCCC4)ccc21` (stereo not shown) [Example 130, 3-([1,2,4]Triazolo[4,3-a]pyridin-7-yl)-3-(5-(2-(5,6,7,8-tetrahydro-1,8-naphthyridin-2-yl)ethoxy)-1H-indazol-1-yl)propanoic acid], 57 nM; that for `NCc1cncc(C(CC(=O)O)n2ncc3cc(OCCc4ccc5c(n4)NCCC5)ccc32)c1` (stereo not shown) [Example 131, 3-(5-(Aminomethyl)pyridin-3-yl)-3-(5-(2-(5,6,7,8-tetrahydro-1,8-naphthyridin-2-yl)ethoxy)-1H-indazol-1-yl)propanoic acid], 30 nM. To `O=C(O)CC(c1cnc2c(c1)OCO2)n1ncc2cc(OCCc3ccc4c(n3)NCCC4)ccc21` (stereo not shown) [Example 132, 3-([1,3]Dioxolo[4,5-b]pyridin-6-yl)-3-(5-(2-(5,6,7,8-tetrahydro-1,8-naphthyridin-2-yl)ethoxy)-1H-indazol-1-yl)propanoic acid] belongs 22 nM; to `COc1ncc(C(CC(=O)O)n2ncc3cc(OCCc4ccc5c(n4)NCCC5)ccc32)cc1C1OCCO1` (stereo not shown) [Example 133, 3-(5-(1,3-Dioxolan-2-yl)-6-methoxypyridin-3-yl)-3-(5-(2-(5,6,7,8-tetrahydro-1,8-naphthyridin-2-yl)ethoxy)-1H-indazol-1-yl)propanoic acid], 400 nM; to `O=C(O)CC(c1cccc(-n2cccn2)n1)n1ncc2cc(OCCc3ccc4c(n3)NCCC4)ccc21` (stereo not shown) [Example 134, 3-(6-(1H-Pyrazol-1-yl)pyridin-2-yl)-3-(5-(2-(5,6,7,8-tetrahydro-1,8-naphthyridin-2-yl)ethoxy)-1H-indazol-1-yl)propanoic acid], 17 nM. For the molecule `O=C(O)CC(c1cnn(-c2ccncc2)c1)n1ncc2cc(OCCc3ccc4c(n3)NCCC4)ccc21` (stereo not shown) [Example 135, 3-(1-(Pyridin-4-yl)-1H-pyrazol-4-yl)-3-(5-(2-(5,6,7,8-tetrahydro-1,8-naphthyridin-2-yl)ethoxy)-1H-indazol-1-yl)propanoic acid], the IC50 worked out at 3.8 nM.

In general, IC50 refers to the concentration needed to halve the response being measured.
